Source: patent US20260151360A1, “ENDOXIFEN COMPOSITIONS AND METHODS OF USE THEREOF AND SYNTHESIS THEREOF” (Atossa Therapeutics, Inc., priority 2023, published 2026)
Where two headings read alike, the source gives them in different places. One block for each compound: values may come before it.

Columns and labels:
[1] = Plasma pharmacokinetics of endoxifen after administration of the compositions; assay type: in vivo; details: for AUC(0-t): read-out: mean AUC24hr; for half-life: endoxifen released from a composition disclosed herein
[2] = (Z)-Endoxifen solubility in dissolution media (pH 6.8 buffer with and without Polysorbate 80); assay type: physicochemical
Procedure: This example describes development of a dissolution assay to measure dissolution of endoxifen formulations. […] Polysorbate 80 (PS80), a nonionic surfactant, was added in varying concentrations to improve solubility and mimic an intestinal environment. Surfactants, such as polysorbate 80, create micelles in the medium that mimic the bile acid aggregates in the small intestine. These micelles facilitate the diffusion and transport of product into the medium.

[3] = cited from earlier work

AUC(0-t) ([1]; human, plasma, Day 1 of initial (first) dose, composition comprising 1 mg to 4 mg of (Z)-endoxifen): 150 to 600 ng·h/mL | AUC(0-t) ([1]; human, plasma, Day 21, compositions comprising 1 mg to 4 mg of (Z)-endoxifen): 400 to 2500 ng·h/mL | AUC(0-inf) ([1]; human, plasma, dosing range of 1 mg to 4 mg of (Z)-endoxifen): 400 to 6000 ng·h/mL
SMILES: CC/C(=C(\c1ccc(O)cc1)c1ccc(OCCNC)cc1)c1ccccc1 [(Z)-endoxifen]

day by which steady state plasma levels are achieved ([1]; daily administration of a composition): ≤ 7 days | half-life ([1]; human, plasma, read-out: mean half-life): 40 to 53 h | half-life ([1]; human, plasma, read-out: terminal elimination half-life): 30 to 60 h | solubility as a function of pH [2]: decreases as pH becomes less acidic
SMILES: CC/C(=C(\c1ccc(O)cc1)c1ccc(OCCNC)cc1)c1ccccc1 [endoxifen, 4-hydroxy-N-desmethyl-tamoxifen]

SMILES: CC/C(=C(\c1ccccc1)c1ccc(OCCN(C)C)cc1)c1ccccc1 [tamoxifen, (Z)-2-[4-(1,2-diphenyl-1-butenyl)phenoxy]-N,N-dimethylethanamine]
Terminal elimination half-life ([3]; Jordan C. Steroids 2007): 120 to 170 h | peak concentration time ([3]; post-dose): approximately 5 hours | Reported therapeutic levels of plasma tamoxifen ([3]; subjects dosed with 20 mg of oral tamoxifen (Lyon et al. 2012)): ≥ 30 nM
